Consider 2 compounds from patent US9687571B2, “Stabilization of radiopharmaceutical compositions using ascorbic acid” (Lantheus Medical Imaging, Inc., priority 2009, dated 2017).

Series [1] in a line: Effect of ascorbic acid concentration on radiochemical purity (Example 4). The class given is physicochemical. The settings on record: pH 5.8, FIG. 3. The method, then: The integrity of a radiopharmaceutical is measured by the radiochemical purity (RCP) of the radiolabeled compound using ITLC or more preferably HPLC. The advantage of using HPLC is that radio-impurities caused by radiolytic degradation can be separated from the radiopharmaceutical under certain chromatographic conditions. […] The radiopharmaceutical compositions of this invention are effective in maintaining the stability of samples for up to ten hours.
This example describes the effect of ascorbic acid concentration on radiochemical purity. In this example, the radiochemical purity (RCP) of the ^18F-labeled drug product (2-tert-butyl-4-chloro-5-[4-(2-[^18F]fluoro-ethoxymethyl)-benzyloxy]-2H-pyridazin-3-one) was monitored for solutions having an ascorbic acid concentration range from 200 mg/mL (saturation level) to 20 mg/mL, at pH 5.8.

A short description of series [2]: Acid/base and solution properties of ascorbic acid. The note with it: aqueous dose solution, pH 5.8. It counts as physicochemical.

SMILES strings stand for the structures.

Regarding `CC(C)(C)n1ncc(OCc2ccc(COCC[18F])cc2)c(Cl)c1=O` [2-tert-butyl-4-chloro-5-[4-(2-[^18F]fluoro-ethoxymethyl)-benzyloxy]-2H-pyridazin-3-one], the “radiochemical purity (RCP) level” value is listed as “increase in impurities (i.e., lower RCP level)” in series [1] (ascorbic acid 20 mg/mL) and “do not significantly change” in series [1] (ascorbic acid 200 to 50 mg/mL). As for `O=C1O[C@H]([C@@H](O)CO)C(O)=C1O` [Ascorbic acid], in series [2], the “saturation level (concentration)” value came out at 200 mg/mL.
